Data published in US8404836B2, “3-phenyl acrylic acid compound activators of type PPAR receptors and pharmaceutical/cosmetic compositions comprised thereof” (Galderma Research & Development, priority 2007, dated 2013).
pKd: −log10 of the molar value.

Key:
PPARγ = biological target: T1, PPARγ (Homo sapiens, UniProt P37231); assay: PPAR transactivation test in crossed curves (HeLN luciferase reporter), PPARγ; format: cell-based; conditions: HeLN cells stably transfected with Gal-hPPARγ and luciferase reporter; crossed curves vs reference agonist, Schild regression; read-out: PPAR gamma Kd app
T1 sequence (P37231 238-505 limits assumed): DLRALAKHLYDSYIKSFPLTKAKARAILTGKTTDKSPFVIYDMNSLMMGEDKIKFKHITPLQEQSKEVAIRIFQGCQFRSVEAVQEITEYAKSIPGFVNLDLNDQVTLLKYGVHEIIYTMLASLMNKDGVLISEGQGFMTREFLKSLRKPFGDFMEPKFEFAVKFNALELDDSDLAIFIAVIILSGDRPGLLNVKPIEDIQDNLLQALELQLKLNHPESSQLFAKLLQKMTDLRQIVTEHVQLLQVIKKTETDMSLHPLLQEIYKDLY
Method: (§1) Activation of the PPAR receptors by an agonist (activator) in HeLN cells leads to the expression of a reporter gene, luciferase, which, in the presence of a substrate, generates light. The modulation of the PPAR receptors is measured by quantifying the luminescence produced after incubation of the cells in the presence of a reference agonist. The ligands will displace the agonist from its site. The activity is measured by quantifying the light produced. This measurement makes it possible to determine the modulating activity of the compounds according to the invention by determining the constant representing the affinity of the molecule for the PPAR receptor. This value, which can fluctuate according to the basal activity and expression of the receptor, is called apparent Kd (KdApp, nM).
(§2) To determine this constant, “crossed curves” of the test product versus a reference agonist are carried out in a 96-well plate: 10 concentrations of the test product plus a 0 concentration are arranged in rows, and 7 concentrations of the agonist plus a 0 concentration are arranged in columns. This is 88 measurement points for 1 product and 1 receptor. The 8 remaining wells are used for repeatability controls.
(§3) Measurements are also carried out for the total agonist controls with the same products.
(§4) The HeLN cell lines used are stable transfectants containing the plasmids ERE-βGlob-Luc-SV-Neo (reporter gene) and PPAR (α, δ, γ) Gal-hPPAR. These cells are sown in 96-well plates at a rate of 10 000 cells per well in 100 μl of DMEM medium without phenol red and supplemented with 10% of delipidated calf serum. The plates are then incubated at 37° C., 7% CO2 for 16 hours.
(§5) The various dilutions of the test products and of the reference ligand are added at a rate of 5 μl per well. The plates are then incubated for 18 hours at 37° C., 7% CO2.
(§6) The culture medium is removed by inverting and 100 μl of a 1:1 mixture PBS/Luciferine is added to each well. After 5 minutes, the plates are read with the luminescence reader.

PPARδ = biological target: T2, PPARδ (Homo sapiens, UniProt Q03181); assay: PPAR transactivation test in crossed curves (HeLN luciferase reporter), PPARδ; format: cell-based; conditions: HeLN cells stably transfected with Gal-hPPARδ and luciferase reporter; crossed curves vs reference agonist, Schild regression; read-out: PPARs delta Kd app
T2 sequence (Q03181 171-441 limits assumed): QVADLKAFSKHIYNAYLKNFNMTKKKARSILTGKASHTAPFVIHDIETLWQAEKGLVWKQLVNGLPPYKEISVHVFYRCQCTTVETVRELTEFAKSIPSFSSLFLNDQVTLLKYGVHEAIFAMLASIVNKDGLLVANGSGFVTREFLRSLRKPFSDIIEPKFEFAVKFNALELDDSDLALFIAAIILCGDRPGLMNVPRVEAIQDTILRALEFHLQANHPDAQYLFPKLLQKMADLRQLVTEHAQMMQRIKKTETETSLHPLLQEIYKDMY
Method: as §1, §2, §3, §4, §5, §6
(§7) These AC50 are used for calculating the Schild regression by plotting a straight line corresponding to the Schild equation (“Quantitation in receptor pharmacology” Terry P. Kenakin, Receptors and Channels, 2001, 7, 371-385) which provides the values of Kd app (in nM).

PPARα = biological target: T3, PPARα (Homo sapiens, UniProt Q07869); assay: PPAR transactivation test in crossed curves (HeLN luciferase reporter), PPARα; format: cell-based; conditions: HeLN cells stably transfected with Gal-hPPARα and luciferase reporter; crossed curves vs reference agonist, Schild regression; read-out: PPAR alpha Kd app
T3 sequence (Q07869 200-468 limits assumed): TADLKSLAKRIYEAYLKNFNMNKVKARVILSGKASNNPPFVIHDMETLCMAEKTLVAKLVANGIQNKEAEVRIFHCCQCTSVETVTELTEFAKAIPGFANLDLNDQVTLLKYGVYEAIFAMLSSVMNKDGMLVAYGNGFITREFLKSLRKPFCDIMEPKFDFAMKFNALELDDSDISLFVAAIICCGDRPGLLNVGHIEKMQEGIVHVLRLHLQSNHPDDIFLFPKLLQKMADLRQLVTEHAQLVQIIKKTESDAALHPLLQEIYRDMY
Method: as §1, §2, §3, §4, §5, §6, §7

| SMILES | pKd (PPARγ) | melting point | pKd (PPARδ) | pKd (PPARα) |
| --- | --- | --- | --- | --- |
| CCCCS(=O)(=O)Oc1ccc(CCOc2ccc(/C=C(\OCC)C(=O)O)cc2OC)cc1 [Example 1, (Z)-3-(4-{2-[4-(butane-1-sulfonyloxy)-phenyl]-ethoxy}-3-methoxy-phenyl)-2-ethoxy-acrylic acid] | 8.10 | 94 °C |  |  |
| CCCCOc1cc(/C=C(\OCC)C(=O)O)ccc1CCCc1ccc(OS(=O)(=O)CCCC)c(OC)c1 [Example 3, (Z)-3-(4-{3-[4-(butane-1-sulfonyloxy)-3-methoxy-phenyl]-propyl}-3-butoxy-phenyl)-2-ethoxy-acrylic acid] | 7.82 |  | 6.60 | 7.22 |
| CCCCOc1cc(/C=C(\OCC)C(=O)O)ccc1OCCc1ccc(OS(=O)(=O)CCCC)cc1 [Example 6, (Z)-3-(4-{2-[4-(butane-1-sulfonyloxy)-phenyl]-ethoxy}-3-butoxy-phenyl)-2-ethoxy-acrylic acid] | 8.70 |  |  | 6.92 |
| CCCCOc1cc(/C=C(\OCC)C(=O)O)ccc1OCCc1ccc(OS(C)(=O)=O)c(OC)c1 [Example 7, (Z)-3-{3-butoxy-4-[2-(4-methanesulfonyloxy-3-methoxy-phenyl)-ethoxy]-phenyl}-2-ethoxy-acrylic acid] | 7.82 | 97 °C |  | 6.60 |
| CCCCOc1cc(/C=C(\OCC)C(=O)O)ccc1OCCc1ccc(OS(=O)(=O)CCCC)c(OC)c1 [Example 8, (Z)-3-(4-{2-[4-(butane-1-sulfonyloxy)-3-methoxy-phenyl]-ethoxy}-3-butoxy-phenyl)-2-ethoxy-acrylic acid] | 7.82 |  | 5.70 | 6.92 |
| CCCCOc1cc(/C=C(\OCC)C(=O)O)ccc1OCCc1ccc(OS(=O)(=O)CCCC)cc1OC [Example 9, (Z)-3-(4-{2-[4-(butane-1-sulfonyloxy)-2-methoxy-phenyl]-ethoxy}-3-butoxy-phenyl)-2-ethoxy-acrylic acid] | 8.10 |  |  | 5.70 |
| CCCCOc1cc(/C=C(\OCC)C(=O)O)ccc1OCCc1ccc(OS(C)(=O)=O)cc1OC [Example 10, (Z)-3-{3-butoxy-4-[2-(4-methanesulfonyloxy-2-methoxy-phenyl)-ethoxy]-phenyl}-2-ethoxy-acrylic acid] |  | 112 °C |  |  |
| CCCCOc1cc(/C=C(\OCC)C(=O)O)ccc1OCCc1ccc(OCC)c(F)c1 [Example 11, (Z)-3-{3-butoxy-4-[2-(4-ethoxy-3-fluoro-phenyl)-ethoxy]-phenyl}-2-ethoxy-acrylic acid] |  | 119 °C |  |  |
| CCCCCOc1ccc(CCOc2ccc(/C=C(\OCC)C(=O)O)cc2OCCCC)cc1F [Example 12, (Z)-3-{3-butoxy-4-[2-(3-fluoro-4-pentyloxy-phenyl)-ethoxy]-phenyl}-2-ethoxy-acrylic acid] |  | 102 °C |  |  |
| CCCCOc1cc(/C=C(\OCC)C(=O)O)ccc1OCCc1ccc(OS(=O)(=O)CCCC)c(F)c1 [Example 13, (Z)-3-(4-{2-[4-(butane-1-sulfonyloxy)-3-fluoro-phenyl]-ethoxy}-3-butoxy-phenyl)-2-ethoxy-acrylic acid] | 8.10 | 99 °C | 5.70 | 6.60 |
| CCCCCOc1ccc(CCOc2ccc(/C=C(\OCC)C(=O)O)cc2OCCCC)cc1Cl [Example 15, (Z)-3-{3-butoxy-4-[2-(3-chloro-4-pentyloxy-phenyl)-ethoxy]-phenyl}-2-ethoxy-acrylic acid] |  | 95 °C |  |  |
| CCCCOc1cc(/C=C(\OCC)C(=O)O)ccc1OCCc1ccc(OS(C)(=O)=O)c(Cl)c1 [Example 16, (Z)-3-{3-butoxy-4-[2-(3-chloro-4-methanesulfonyloxy-phenyl)-ethoxy]-phenyl}-2-ethoxy-acrylic acid] |  | 113 °C |  |  |
| CCCCOc1cc(/C=C(\OCC)C(=O)O)ccc1OCCc1ccc(OS(=O)(=O)CCCC)c(Cl)c1 [Example 17, (Z)-3-(4-{2-[4-(butane-1-sulfonyloxy)-3-chloro-phenyl]-ethoxy}-3-butoxy-phenyl)-2-ethoxy-acrylic acid] | 8.10 | 80 °C | 6.00 | 7.22 |
| CCO/C(=C\c1ccc(OCCc2ccc(OCC)cc2)c(OC)c1)C(=O)O [Example 19, (Z)-2-ethoxy-3-{4-[2-(4-ethoxy-phenyl)-ethoxy]-3-methoxy-phenyl}-acrylic acid] |  | 121 °C |  |  |
| CCCCOc1cc(/C=C(\OCC)C(=O)O)ccc1OCCc1ccc(NS(=O)(=O)CCCC)cc1 [Example 22, (Z)-3-(4-{2-[4-(butane-1-sulfonylamino)-phenyl]-ethoxy}-3-butoxy-phenyl)-2-ethoxy-acrylic acid] |  | 164 °C |  |  |
| CCCCOc1cc(/C=C(\OCC)C(=O)O)ccc1OCCc1ccc(N(C)S(C)(=O)=O)cc1 [Example 23, (Z)-3-(3-butoxy-4-{2-[4-(methanesulfonyl-methyl-amino)-phenyl]-ethoxy}-phenyl)-2-ethoxy-acrylic acid] |  | 112 °C |  |  |
